From ChEMBL document CHEMBL1201862, “PubChem BioAssay data set” (2004)
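Following 48 hours of exposure in 96-well plates, responses at five concentrations were used to interpolate endpoints linearly. At the GI50, growth is halved.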 Active and inactive are the calls of the source. Cut-off read from the data, not from the text of the source: active = GI50 up to about 1.1 µM and inactive = higher.

Tests used:
Assay in all cases: NCI tumour cell line growth inhibition, 48 h
OVCAR-8 = tested on: OVCAR-8
A498 = tested on: A498
MOLT-4 = tested on: MOLT-4
DU-145 = tested on: DU-145
CAKI-1 = tested on: CAKI-1
BT-549 = tested on: BT-549
T47D = tested on: T47D
SK-MEL-2 = tested on: SK-MEL-2
NCI-H522 = tested on: NCI-H522
SNB-19 = tested on: SNB-19
HOP-92 = tested on: HOP-92
SW-620 = tested on: SW-620
K562 = tested on: K562
RPMI-8226 = tested on: RPMI-8226
NCI/ADR-RES = tested on: NCI/ADR-RES
TK-10 = tested on: TK-10
KM12 = tested on: KM12
HCT-15 = tested on: HCT-15
MDA-MB-435 = tested on: MDA-MB-435
ACHN = tested on: ACHN
SK-MEL-5 = tested on: SK-MEL-5
HCT-116 = tested on: HCT-116
SR = tested on: SR
Hs-578T = tested on: Hs-578T
OVCAR-3 = tested on: OVCAR-3
NCI-H226 = tested on: NCI-H226
SF-295 = tested on: SF-295
A549 = tested on: A549
COLO 205 = tested on: COLO 205
MDA-N = tested on: MDA-N
NCI-H23 = tested on: NCI-H23
U-251 = tested on: U-251
HT-29 = tested on: HT-29
786-0 = tested on: 786-0
M14 = tested on: M14
CCRF-CEM = tested on: CCRF-CEM
SF-268 = tested on: SF-268
MDA-MB-231 = tested on: MDA-MB-231
OVCAR-4 = tested on: OVCAR-4
HOP-62 = tested on: HOP-62
UO-31 = tested on: UO-31
SN12C = tested on: SN12C
LOX IMVI = tested on: LOX IMVI
OVCAR-5 = tested on: OVCAR-5
SF-539 = tested on: SF-539
Malme-3M = tested on: Malme-3M
MCF7 = tested on: MCF7
RXF 393 = tested on: RXF 393
SK-MEL-28 = tested on: SK-MEL-28
EKVX = tested on: EKVX
HCC 2998 = tested on: HCC 2998
PC-3 = tested on: PC-3
UACC-257 = tested on: UACC-257
HL-60 = tested on: HL-60
NCI-H460 = tested on: NCI-H460
IGROV-1 = tested on: IGROV-1

In the case of `CC(=O)Nc1cc2cc(N)ccc2oc1=O`, the GI50 (OVCAR-8) is reported as > 100 µM (inactive), the GI50 (A498) is reported as > 100 µM (inactive) and the GI50 (MOLT-4) is reported as > 100 µM (inactive). For the same molecule, the GI50 (DU-145) was > 100 µM (inactive), the GI50 (CAKI-1) was > 100 µM (inactive) and the GI50 (BT-549) was > 100 µM (inactive). For the same molecule, the GI50 (T47D) was > 100 µM (inactive), the GI50 (SK-MEL-2) was > 100 µM (inactive) and the GI50 (NCI-H522) was > 100 µM (inactive). For the same molecule, the GI50 (SNB-19) was > 100 µM (inactive), the GI50 (HOP-92) was > 100 µM (inactive) and the GI50 (SW-620) was > 100 µM (inactive). For the same molecule, the GI50 (K562) was > 100 µM (inactive), the GI50 (RPMI-8226) was > 100 µM (inactive) and the GI50 (NCI/ADR-RES) was > 100 µM (inactive). For the same molecule, the GI50 (TK-10) was > 100 µM (inactive), the GI50 (KM12) was > 100 µM (inactive) and the GI50 (HCT-15) was over 100 µM. For the same molecule, the GI50 (MDA-MB-435) was > 100 µM (inactive), the GI50 (ACHN) was > 100 µM (inactive) and the GI50 (SK-MEL-5) was > 100 µM (inactive). For the same molecule, the GI50 (HCT-116) was > 100 µM (inactive), the GI50 (SR) was > 100 µM (inactive) and the GI50 (Hs-578T) was > 100 µM (inactive). For the same molecule, the GI50 (OVCAR-3) was > 100 µM (inactive), the GI50 (NCI-H226) was > 100 µM (inactive) and the GI50 (SF-295) was > 100 µM (inactive). For the same molecule, the GI50 (A549) was > 100 µM (inactive), the GI50 (COLO 205) was > 100 µM (inactive) and the GI50 (MDA-N) was > 100 µM (inactive). For the same molecule, the GI50 (NCI-H23) was > 100 µM (inactive), the GI50 (U-251) was > 100 µM (inactive) and the GI50 (HT-29) was > 100 µM (inactive). For the same molecule, the GI50 (786-0) was > 100 µM (inactive), the GI50 (M14) was > 100 µM (inactive) and the GI50 (CCRF-CEM) was > 100 µM (inactive). The GI50 (SF-268) was > 100 µM (inactive), the GI50 (MDA-MB-231) was > 100 µM (inactive) and the GI50 (OVCAR-4) was > 100 µM (inactive). The GI50 (HOP-62) was > 100 µM (inactive), the GI50 (UO-31) was > 100 µM (inactive) and the GI50 (SN12C) was > 100 µM (inactive). For the same molecule, the GI50 (LOX IMVI) was > 100 µM (inactive), the GI50 (OVCAR-5) was > 100 µM (inactive) and the GI50 (SF-539) was > 100 µM (inactive). For the same molecule, the GI50 (Malme-3M) was > 100 µM (inactive), the GI50 (MCF7) was > 100 µM (inactive) and the GI50 (RXF 393) was 0.0411 µM (active). The GI50 (SK-MEL-28) was > 100 µM (inactive), the GI50 (EKVX) was > 100 µM (inactive) and the GI50 (HCC 2998) was > 100 µM (inactive). For the same molecule, the GI50 (PC-3) was > 100 µM (inactive), the GI50 (UACC-257) was > 100 µM (inactive) and the GI50 (HL-60) was > 100 µM (inactive). For the same molecule, the GI50 (NCI-H460) was > 100 µM (inactive) and the GI50 (IGROV-1) was > 100 µM (inactive).
